Measured values as given in patent publication US20250340525A1, “F[…] COMPOUND” ([…], INC., priority 2022, published 2025).

Test system: mice
Experiment: Anesthetic activity: inhalation exposure of mice in a microcircuit, loss-of-righting-reflex (LORR)
Assay type: in vivo
Settings: inhalation exposure to vaporized compound/air mixture circulated through microcircuit, dose not quantified
Protocol: A sample of the product mixture formed in Step 4 of the synthesis of Example 1, comprising both cis- and trans-isomers of TTD (the “TTD mixture”), was administered to mice via inhalation exposure in a microcircuit connected using unidirectional airflow valves to a CO2 absorbent chamber and a glass syringe. A small amount of liquid TTD mixture was transferred into the glass syringe where it volatilized. Mice were transferred to the small cylindrical chamber, and the glass syringe was connected to the microcircuit in series. […] Delivery of TTD mixture was discontinued, and the mice were allowed to recover.
Separately, the trans-isomer of TTD isolated in step 5 of Example 1 above was administered to mice via inhalation exposure in a microcircuit connected using unidirectional airflow valves to a CO2 absorbent chamber and a glass syringe. A small amount of the TTD was transferred into the glass syringe where it volatilized. Mice were transferred to the small cylindrical chamber, and the glass syringe was connected to the microcircuit in series. […] Delivery of the TTD was discontinued, and the mice were allowed to recover.

Row | Structure (SMILES) | loss-of-righting-reflex (LORR) / anesthetic activity
1 | F[C@@H]1OC(F)(C(F)(F)F)O[C@H]1F (relative stereo) [trans-isomer of TTD, trans-2,4,5-trifluoro-2-trifluoromethyl-1,3-dioxolane] | indicated a loss-of-righting-reflex (LORR)
2 | FC1OC(F)(C(F)(F)F)OC1F (centres unmarked) [TTD mixture, 2,4,5-trifluoro-2-(trifluoromethyl)-1,3-dioxolane] | indicated a loss-of-righting-reflex (LORR)
